Several values for one entry are separate records, joined by “and”; a condition that tells them apart may be missing. Equal values may be shown once.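 These data come from cells grown in 96-well plates and exposed to compound for 48 hours at five concentrations. Here, GI50 denotes the concentration required for 50% inhibition of growth. TGI marks complete inhibition of growth.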
How the values were obtained:
Experiment in all cases: DTP human tumour cell line panel, 48 h
SN12C renal = tested on: SN12C renal
SR leukemia = tested on: SR leukemia
HCC-2998 colon = tested on: HCC-2998 colon
K-562 leukemia = tested on: K-562 leukemia
UO-31 renal = tested on: UO-31 renal
NCI-H460 lung = tested on: NCI-H460 lung
LOX IMVI melanoma = tested on: LOX IMVI melanoma
HT29 colon = tested on: HT29 colon
MALME-3M melanoma = tested on: MALME-3M melanoma
HCT-116 colon = tested on: HCT-116 colon

Structure (SMILES) | GI50 (SN12C renal) | TGI (SN12C renal) | GI50 (SR leukemia) | GI50 (HCC-2998 colon) | TGI (HCC-2998 colon) | TGI (K-562 leukemia) | GI50 (UO-31 renal) | TGI (UO-31 renal) | TGI (NCI-H460 lung) | GI50 (LOX IMVI melanoma) | TGI (LOX IMVI melanoma) | GI50 (HT29 colon) | TGI (HT29 colon) | GI50 (MALME-3M melanoma) | TGI (MALME-3M melanoma) | GI50 (HCT-116 colon) | TGI (HCT-116 colon) | TGI (SR leukemia) | GI50 (K-562 leukemia) | GI50 (NCI-H460 lung)
COc1ccc(C(=O)/C=C/c2ccc(O)c(O)c2F)c(OC)c1 | 2.42 µM | 18.6 µM and 11.9 µM | 0.072 µM | 3.41 µM | 12.2 µM and 12.3 µM | 75 µM and 18.1 µM | 7.04 µM | 16.3 µM and 38.4 µM | 13 µM and 15.9 µM | 4.95 µM | 20.3 µM and 20.4 µM | 4.03 µM | 23.8 µM and 17.7 µM | 12 µM | 22.6 µM and 25.2 µM | 2.66 µM | 14 µM and 10 µM | – | – | –
COc1cccc(-c2nn(-c3ccccc3)cc2-c2ccnc(NCCNS(=O)(=O)c3ccc(Cl)cc3)c2)c1 | 5.45 µM | > 100 µM | 2.25 µM | 4.26 µM | > 100 µM | > 100 µM | 2.9 µM | > 100 µM | > 100 µM | 3.12 µM | > 100 µM | 3.37 µM | 11.3 µM | 3.8 µM | > 100 µM | 4.63 µM | > 100 µM | 6.59 µM | 3.73 µM | 5.15 µM
O=C1/C(=C/c2cccc([N+](=O)[O-])c2)COc2ccc(O)c(O)c21 | 1.16 µM | 2.51 µM | 0.364 µM | 1.66 µM | 3.22 µM | 7.22 µM | 1.07 µM | 2.29 µM | 4.97 µM | 0.499 µM | 1.86 µM | 2.89 µM | 19.1 µM | 1.49 µM | 3.04 µM | 1.14 µM | 2.7 µM | 7.94 µM | 0.506 µM | 2.08 µM
COc1cc(/C=C(/C)[N+](=O)[O-])ccc1O | 2.2 µM and 2.43 µM | 5.98 µM and 9.43 µM | 1.12 µM | 1.77 µM and 1.68 µM | 3.28 µM and 3.08 µM | > 100 µM | 1.53 µM and 1.41 µM | 3.19 µM and 3.39 µM | 7.15 µM and 6.05 µM | 1.59 µM and 1.58 µM | 3.27 µM and 3 µM | 2.63 µM | 6.09 µM | 2 µM and 1.53 µM | 4.08 µM and 3.58 µM | 1.65 µM and 1.71 µM | 3.12 µM and 3.29 µM | 11.2 µM | 1.47 µM | 2.52 µM and 2.22 µM
CC(C)(C)NNC(=O)/C(=C/c1ccc(Oc2ccc(Cl)c(Cl)c2)cc1)NC(=O)c1ccccc1 | – | > 100 µM | – | – | > 100 µM | > 100 µM | – | > 100 µM | > 100 µM | – | 40.1 µM | – | > 100 µM | – | > 100 µM | – | > 100 µM | 35.9 µM | – | –
CC(C(=O)N1C(=O)N(C(=O)C(C)C(O)c2ccccc2)C(c2ccccc2)C1c1ccccc1)C(O)c1ccccc1 (stereo unspecified) | – | 37.3 µM | – | – | > 100 µM | 41.6 µM | – | 41.1 µM | 19.9 µM | – | 24.2 µM | – | 18.8 µM | – | 32.3 µM | – | 26.7 µM | 14.5 µM | – | –
Cc1cc2c(c3c1c1ccccc1n3C)C(=O)C=CC2=O | – | > 82.7 µM | – | – | > 92.5 µM | > 54 µM | – | 36.5 µM | > 100 µM | – | 35.6 µM | – | > 70.2 µM | – | > 82.6 µM | – | 43.8 µM | 4.56 µM | – | –
O=C(/C=C/c1ccco1)c1ccc(Nc2nc(Nc3ccc(F)cc3)nc(Nc3ccc(Cl)cc3)n2)cc1 | 45.6 µM | > 100 µM | > 20.7 µM | 38.1 µM | > 100 µM | > 64.8 µM | > 60.8 µM | > 100 µM | 31.9 µM | 16.1 µM | 39.3 µM | 15.6 µM | > 89.7 µM | 31.9 µM | > 66.2 µM | 16.5 µM | > 54.4 µM | > 44.5 µM | 24.3 µM | 9.29 µM
COc1ccc(C(=O)Cn2c(C(=O)c3ccc(Cl)cc3)nc3ccccc32)cc1 | 97.8 µM | > 100 µM | 2.2 µM | 6.55 µM | > 100 µM | > 100 µM | > 51.2 µM | > 100 µM | > 100 µM | 17.5 µM | > 100 µM | 7.58 µM | > 100 µM | > 56.3 µM | > 100 µM | 2.56 µM | > 25 µM | > 22.4 µM | 3.33 µM | 25.2 µM
O=C1c2ccccc2-c2c1c1ccccc1c(=O)n2CCCNCCCn1c2c(c3ccccc3c1=O)C(=O)c1ccccc1-2 | 3.4 µM | 14.9 µM | 14.3 µM | 6.82 µM | 17.7 µM | – | 2.16 µM | > 50 µM | > 17.7 µM | 1.49 µM | 8.25 µM | 0.997 µM | > 50 µM | 12.6 µM | 26.2 µM | 1.75 µM | > 28.9 µM | > 50 µM | 4.07 µM | 2.31 µM
CCCc1c2c([nH]c(=O)c1C)C(=O)c1[nH]c(=O)c(C)c(CCC)c1C2=O | – | 22.2 µM | – | – | > 100 µM | 67.1 µM | – | > 100 µM | 77.3 µM | – | 55.3 µM | – | 18.7 µM | – | 22.2 µM | – | 36.7 µM | 42.2 µM | – | –
